# The source made the active and inactive calls. The calls are words filed in the database; no cut-off is given here.
# Key:
# Oryctolagus cuniculus [1] = test: Cmax in NewZealand white rabbit plasma assessed as 4-{[(2'-(Aminomethyl)-5'-{[(3-fluoropyridin-4-yl)amino]-carbonyl}biphenyl-3-yl)carbonyl]amino}benzoic Acid at 0.1 mg/kg, iv after 120 mins by LC-MS/MS analysis; assay type: ADME, organism-based; design: dose 0.1 mg/kg, route intravenous; details: in vivo, 2 h
# [2] = target: T1, Protein kinase C epsilon type (Homo sapiens) (UniProt Q02156); test: Inhibition of human full length PKC epsilon expressed in insect cells using S25 PKC peptide as substrate at 100 nM by radiometric assay in presence of [32P]ATP
# T1 sequence (whole entry): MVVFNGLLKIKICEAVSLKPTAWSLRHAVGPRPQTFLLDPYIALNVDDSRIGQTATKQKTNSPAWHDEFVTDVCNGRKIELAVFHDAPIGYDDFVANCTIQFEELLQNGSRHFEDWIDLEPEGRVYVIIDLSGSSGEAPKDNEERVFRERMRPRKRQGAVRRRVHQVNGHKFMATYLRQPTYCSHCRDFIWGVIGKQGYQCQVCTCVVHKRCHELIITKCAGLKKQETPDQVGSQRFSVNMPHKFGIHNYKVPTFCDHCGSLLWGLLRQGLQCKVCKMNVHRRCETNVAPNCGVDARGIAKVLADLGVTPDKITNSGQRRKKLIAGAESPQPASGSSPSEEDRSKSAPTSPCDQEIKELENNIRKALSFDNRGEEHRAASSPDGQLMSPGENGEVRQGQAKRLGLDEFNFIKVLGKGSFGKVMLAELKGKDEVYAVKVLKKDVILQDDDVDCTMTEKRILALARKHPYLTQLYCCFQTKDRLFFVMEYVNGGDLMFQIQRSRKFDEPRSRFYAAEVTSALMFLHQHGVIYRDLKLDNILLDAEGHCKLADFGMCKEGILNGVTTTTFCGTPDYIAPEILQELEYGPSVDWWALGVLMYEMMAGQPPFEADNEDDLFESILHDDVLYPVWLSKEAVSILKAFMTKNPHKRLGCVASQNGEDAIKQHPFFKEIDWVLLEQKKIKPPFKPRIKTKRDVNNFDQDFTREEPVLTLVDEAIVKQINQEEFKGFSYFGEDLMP
# [3] = target: Protein kinase C eta type (Homo sapiens) (UniProt P24723); test: Inhibition of human N-terminal GST-tagged PKC eta expressed in baculovirus-infected insect cells using PKCe peptide as substrate at 100 nM by radiometric assay in presence of [32P]ATP and lipid activator
# Sequence of Protein kinase C eta type (Homo sapiens) (P24723 whole entry): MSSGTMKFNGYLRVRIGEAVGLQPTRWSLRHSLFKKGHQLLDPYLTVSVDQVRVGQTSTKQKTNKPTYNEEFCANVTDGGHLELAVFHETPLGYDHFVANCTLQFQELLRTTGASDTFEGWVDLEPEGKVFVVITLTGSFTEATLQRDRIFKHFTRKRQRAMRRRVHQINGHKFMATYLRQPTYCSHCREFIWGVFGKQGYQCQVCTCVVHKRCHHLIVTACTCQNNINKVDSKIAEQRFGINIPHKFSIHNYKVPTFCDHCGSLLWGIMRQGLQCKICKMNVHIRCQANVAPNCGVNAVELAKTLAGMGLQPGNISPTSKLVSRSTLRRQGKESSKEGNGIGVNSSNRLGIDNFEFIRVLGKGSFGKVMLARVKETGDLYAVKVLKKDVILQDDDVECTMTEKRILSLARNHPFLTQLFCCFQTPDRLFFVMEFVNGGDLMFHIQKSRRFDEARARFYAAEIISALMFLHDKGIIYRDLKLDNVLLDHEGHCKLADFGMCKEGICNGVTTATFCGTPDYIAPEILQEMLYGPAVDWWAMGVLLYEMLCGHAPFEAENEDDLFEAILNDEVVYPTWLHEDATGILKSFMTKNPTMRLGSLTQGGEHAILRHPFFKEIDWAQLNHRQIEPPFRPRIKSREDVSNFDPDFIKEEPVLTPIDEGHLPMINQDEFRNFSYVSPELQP
# [4] = target: Protein kinase C delta type (Homo sapiens) (UniProt Q05655); test: Inhibition of human full length PKC delta expressed in insect cells using PKCe peptide as substrate at 100 nM by radiometric assay in presence of [32P]ATP and lipid activator
# Sequence of Protein kinase C delta type (Homo sapiens) (Q05655 whole entry, looked up): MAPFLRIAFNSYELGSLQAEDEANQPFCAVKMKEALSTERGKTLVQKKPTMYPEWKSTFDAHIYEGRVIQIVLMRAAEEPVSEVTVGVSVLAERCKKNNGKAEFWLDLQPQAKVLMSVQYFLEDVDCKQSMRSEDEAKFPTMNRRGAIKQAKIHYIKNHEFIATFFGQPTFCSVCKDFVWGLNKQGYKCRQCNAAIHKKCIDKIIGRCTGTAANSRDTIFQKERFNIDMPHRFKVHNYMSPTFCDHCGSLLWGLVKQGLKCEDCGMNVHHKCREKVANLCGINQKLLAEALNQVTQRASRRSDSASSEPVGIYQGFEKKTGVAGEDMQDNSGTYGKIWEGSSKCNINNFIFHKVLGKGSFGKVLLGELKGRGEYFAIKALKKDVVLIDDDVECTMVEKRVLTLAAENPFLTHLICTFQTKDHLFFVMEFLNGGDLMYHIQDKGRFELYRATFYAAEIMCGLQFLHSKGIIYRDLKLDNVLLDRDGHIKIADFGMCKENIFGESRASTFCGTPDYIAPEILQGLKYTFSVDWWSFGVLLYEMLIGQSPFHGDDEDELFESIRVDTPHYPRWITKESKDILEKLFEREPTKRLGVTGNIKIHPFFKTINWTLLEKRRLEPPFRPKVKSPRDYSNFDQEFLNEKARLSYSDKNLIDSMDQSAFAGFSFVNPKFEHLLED
# Homo sapiens = species on record: Homo sapiens; test: Inhibition of human full length C-terminal His6-tagged PKC theta P300L mutant expressed in baculovirus-infected insect cells using histone H1 as substrate at 100 nM by radiometric assay in presence of [32P]ATP and lipid activator
# [5] = target: Ribosomal protein S6 kinase alpha-5 (Homo sapiens) (UniProt O75582); test: Inhibition of human full length N-terminal GST-tagged MSK1 expressed in insect cells using crosstide as substrate at 100 nM by radiometric assay in presence of [32P]ATP
# Sequence of Ribosomal protein S6 kinase alpha-5 (Homo sapiens) (O75582 whole entry, looked up): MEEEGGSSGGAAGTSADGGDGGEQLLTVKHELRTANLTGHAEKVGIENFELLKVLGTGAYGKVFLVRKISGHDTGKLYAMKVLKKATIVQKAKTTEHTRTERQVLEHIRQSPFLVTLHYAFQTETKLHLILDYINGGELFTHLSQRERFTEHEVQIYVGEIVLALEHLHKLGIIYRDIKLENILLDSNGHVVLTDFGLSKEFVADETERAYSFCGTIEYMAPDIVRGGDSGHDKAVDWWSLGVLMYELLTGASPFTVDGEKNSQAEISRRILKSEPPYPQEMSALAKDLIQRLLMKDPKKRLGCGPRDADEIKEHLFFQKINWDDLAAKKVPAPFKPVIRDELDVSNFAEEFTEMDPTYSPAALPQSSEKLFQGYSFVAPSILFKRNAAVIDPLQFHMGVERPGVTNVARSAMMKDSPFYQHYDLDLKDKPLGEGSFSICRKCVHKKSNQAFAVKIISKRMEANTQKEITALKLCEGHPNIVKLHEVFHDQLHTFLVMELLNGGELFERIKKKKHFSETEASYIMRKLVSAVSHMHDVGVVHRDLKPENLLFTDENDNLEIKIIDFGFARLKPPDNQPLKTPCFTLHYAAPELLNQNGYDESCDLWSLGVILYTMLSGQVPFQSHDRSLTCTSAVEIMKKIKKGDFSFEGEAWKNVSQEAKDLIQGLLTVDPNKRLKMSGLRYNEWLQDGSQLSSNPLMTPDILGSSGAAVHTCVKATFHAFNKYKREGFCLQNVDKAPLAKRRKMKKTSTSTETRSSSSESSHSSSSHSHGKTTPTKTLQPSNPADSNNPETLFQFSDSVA
# [6] = target: Serine/threonine-protein kinase N1 (Homo sapiens) (UniProt Q16512); test: Inhibition of human full length N-terminal GST-tagged PRK1 expressed in insect cells using glycogen synthase derived peptide as substrate at 100 nM by radiometric assay in presence of [32P]ATP
# [7] = target: Serine/threonine-protein kinase N2 (Homo sapiens) (UniProt Q16513); test: Inhibition of human full length N-terminal GST-tagged PRK2 expressed in insect cells using glycogen synthase derived peptide as substrate at 100 nM by radiometric assay in presence of [32P]ATP
# Sequence of Serine/threonine-protein kinase N2 (Homo sapiens) (Q16513 whole entry, looked up): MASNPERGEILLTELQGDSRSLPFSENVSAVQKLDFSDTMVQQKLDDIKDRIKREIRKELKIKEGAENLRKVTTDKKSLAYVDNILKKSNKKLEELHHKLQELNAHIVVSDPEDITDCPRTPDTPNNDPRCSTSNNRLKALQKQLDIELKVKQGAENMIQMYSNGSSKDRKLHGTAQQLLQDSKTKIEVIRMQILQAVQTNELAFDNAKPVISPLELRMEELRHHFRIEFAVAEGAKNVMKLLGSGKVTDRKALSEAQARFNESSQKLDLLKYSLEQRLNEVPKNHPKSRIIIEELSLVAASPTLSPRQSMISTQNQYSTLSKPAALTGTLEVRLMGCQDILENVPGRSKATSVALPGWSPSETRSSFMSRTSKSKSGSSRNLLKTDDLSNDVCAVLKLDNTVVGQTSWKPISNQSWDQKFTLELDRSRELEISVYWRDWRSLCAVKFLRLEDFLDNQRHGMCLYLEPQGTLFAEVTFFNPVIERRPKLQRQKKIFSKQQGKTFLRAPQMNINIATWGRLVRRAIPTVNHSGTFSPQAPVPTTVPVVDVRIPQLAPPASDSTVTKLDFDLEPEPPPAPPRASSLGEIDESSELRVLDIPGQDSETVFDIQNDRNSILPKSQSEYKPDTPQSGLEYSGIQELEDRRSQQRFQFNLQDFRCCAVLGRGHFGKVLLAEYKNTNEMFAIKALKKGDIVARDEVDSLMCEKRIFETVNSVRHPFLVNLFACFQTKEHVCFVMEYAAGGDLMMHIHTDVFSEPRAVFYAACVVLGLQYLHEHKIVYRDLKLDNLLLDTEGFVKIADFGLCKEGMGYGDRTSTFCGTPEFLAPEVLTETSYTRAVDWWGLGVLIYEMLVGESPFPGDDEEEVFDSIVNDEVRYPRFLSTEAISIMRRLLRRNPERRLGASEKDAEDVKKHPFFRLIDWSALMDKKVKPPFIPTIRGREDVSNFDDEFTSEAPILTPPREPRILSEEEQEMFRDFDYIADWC
# [8] = target: T2, cAMP-dependent protein kinase catalytic subunit PRKX (Homo sapiens) (UniProt P51817); test: Inhibition of human full length N-terminal GST-tagged PRKX expressed in insect cells using kemptide as substrate at 100 nM by radiometric assay in presence of [32P]ATP
# T2 sequence (whole entry): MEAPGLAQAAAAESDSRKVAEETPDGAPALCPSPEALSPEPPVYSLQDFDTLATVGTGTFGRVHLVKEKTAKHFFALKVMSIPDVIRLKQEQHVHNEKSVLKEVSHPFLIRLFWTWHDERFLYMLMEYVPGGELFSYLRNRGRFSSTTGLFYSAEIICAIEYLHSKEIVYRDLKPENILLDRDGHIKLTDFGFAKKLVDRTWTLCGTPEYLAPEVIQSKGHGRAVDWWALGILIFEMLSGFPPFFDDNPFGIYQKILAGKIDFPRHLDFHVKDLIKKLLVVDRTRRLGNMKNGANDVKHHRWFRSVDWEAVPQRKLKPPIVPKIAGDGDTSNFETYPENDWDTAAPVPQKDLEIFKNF
# [9] = target: Protein kinase C eta type (Homo sapiens) (UniProt P24723); test: Inhibition of human N-terminal GST-tagged PKC eta expressed in baculovirus-infected insect cells using PKCe peptide as substrate at 10 nM by radiometric assay in presence of [32P]ATP and lipid activator
# [10] = target: Serine/threonine-protein kinase N2 (Homo sapiens) (UniProt Q16513); test: Inhibition of human full length N-terminal GST-tagged PRK2 expressed in insect cells using glycogen synthase derived peptide as substrate at 10 nM by radiometric assay in presence of [32P]ATP
# [11] = Cytotoxicity against human HDF-1 cells assessed as decrease in cell viability after 2 hrs by WST-1 assay; assay type: cell-based
# [12] = Induction of apoptosis in human HDF-1 cells assessed as increase in caspase3/7 activity at 60 uM after 24 hrs by caspase Glo-3/7 assay; assay type: cell-based; details: hdf-1, 24 h
# HDF-1 = test: Induction of cell migration in human HDF-1 cells after 8 hrs by wound healing assay; assay type: functional, cell-based
# [13] = target: Rho-associated protein kinase 1 (Homo sapiens, UniProt Q13464); test: Inhibition of human N-terminal GST-tagged ROCK1 expressed in insect cells using long S6 kinase peptide as substrate by radiometric assay in presence of [32P]ATP
# [14] = target: T3, Rho-associated protein kinase 2 (Homo sapiens, UniProt O75116); test: Inhibition of human N-terminal GST-tagged ROCK2 expressed in baculovirus-infected insect cells using long S6 kinase peptide as substrate by radiometric assay in presence of [32P]ATP
# T3 sequence (O75116 whole entry): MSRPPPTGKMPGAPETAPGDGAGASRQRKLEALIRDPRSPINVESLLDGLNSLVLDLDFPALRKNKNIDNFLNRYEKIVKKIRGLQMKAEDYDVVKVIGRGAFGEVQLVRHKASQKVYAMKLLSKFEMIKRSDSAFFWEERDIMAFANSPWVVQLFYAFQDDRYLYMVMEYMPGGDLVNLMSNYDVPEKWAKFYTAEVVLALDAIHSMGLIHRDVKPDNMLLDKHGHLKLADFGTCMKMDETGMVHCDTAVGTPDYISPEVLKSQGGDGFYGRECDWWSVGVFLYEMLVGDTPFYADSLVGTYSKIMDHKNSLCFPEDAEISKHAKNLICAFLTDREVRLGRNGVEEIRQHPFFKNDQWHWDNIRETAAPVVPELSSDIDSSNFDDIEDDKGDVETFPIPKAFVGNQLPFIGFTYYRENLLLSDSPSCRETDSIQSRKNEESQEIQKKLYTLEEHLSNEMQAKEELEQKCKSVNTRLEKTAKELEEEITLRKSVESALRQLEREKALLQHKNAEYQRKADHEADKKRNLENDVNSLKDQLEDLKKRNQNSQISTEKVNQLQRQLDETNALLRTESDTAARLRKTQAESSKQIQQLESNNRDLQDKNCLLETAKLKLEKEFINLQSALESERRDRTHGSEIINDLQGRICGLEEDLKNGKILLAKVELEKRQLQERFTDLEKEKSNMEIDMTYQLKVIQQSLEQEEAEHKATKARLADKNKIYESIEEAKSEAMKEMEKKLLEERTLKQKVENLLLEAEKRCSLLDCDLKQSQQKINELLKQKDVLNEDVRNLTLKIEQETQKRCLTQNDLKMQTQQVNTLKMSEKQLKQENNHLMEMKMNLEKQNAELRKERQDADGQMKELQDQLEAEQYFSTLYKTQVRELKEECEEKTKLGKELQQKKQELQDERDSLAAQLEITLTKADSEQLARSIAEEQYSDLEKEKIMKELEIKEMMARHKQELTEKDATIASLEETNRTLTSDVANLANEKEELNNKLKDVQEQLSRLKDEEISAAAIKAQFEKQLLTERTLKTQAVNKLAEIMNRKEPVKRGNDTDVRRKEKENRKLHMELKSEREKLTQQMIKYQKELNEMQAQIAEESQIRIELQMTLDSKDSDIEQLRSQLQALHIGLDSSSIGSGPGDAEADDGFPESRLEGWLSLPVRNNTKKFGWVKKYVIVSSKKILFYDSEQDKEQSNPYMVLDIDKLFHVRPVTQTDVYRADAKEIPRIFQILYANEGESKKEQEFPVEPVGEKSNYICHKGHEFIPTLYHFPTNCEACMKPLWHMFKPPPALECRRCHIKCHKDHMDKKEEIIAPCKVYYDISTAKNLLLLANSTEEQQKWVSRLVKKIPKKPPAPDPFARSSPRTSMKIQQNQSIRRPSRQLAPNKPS
# [15] = target: T3, Rho-associated protein kinase 2; test: Inhibition of human N-terminal GST-tagged ROCK2 expressed in baculovirus-infected insect cells using long S6 kinase peptide as substrate by radiometric assay in presence of [32P]ATP and 200 uM ATP
# [16] = Inhibition of ROCK-catalysed MLC Thr18/Ser19 phosphorylation in rat A7r5 cells after 90 mins by ELISA; assay type: cell-based; details: A7R5, 1.5 h
# [17] = Half life in human plasma by LC-MS/MS analysis; assay type: ADME, cell-free
# [18] = Apparent permeability across human Caco2 cells; assay type: ADME, cell-based; details: Caco-2
# [19] = Lipophilicity, log D of the compound at pH 7.4; assay type: physicochemical; details: buffer
# [20] = Half life in NewZealand white rabbit plasma by LC-MS/MS analysis; assay type: ADME, cell-free, Oryctolagus cuniculus; details: New Zealand white
# [21] = Half life in human hepatocytes by LC-PDA-MSA analysis; assay type: ADME, cell-based, Hepatocyte
# [22] = Half life in NewZealand white rabbit hepatocytes by LC-PDA-MSA analysis; assay type: ADME, cell-based, Oryctolagus cuniculus, Hepatocyte; details: New Zealand white
# [23] = Stability in human hepatocytes assessed as compound remaining after 120 mins by LC-MS/MS analysis; assay type: ADME, cell-based, Hepatocyte; details: read-out: Stability
# [24] = Stability in NewZealand white rabbit hepatocytes assessed as compound remaining after 120 mins by LC-MS/MS analysis; assay type: ADME, cell-based, Oryctolagus cuniculus, Hepatocyte; details: New Zealand white, read-out: Stability
# [25] = Cmax in NewZealand white rabbit plasma at 0.1 mg/kg, iv after 1 min by LC-MS/MS analysis; assay type: ADME, organism-based, Oryctolagus cuniculus; design: dose 0.1 mg/kg, route intravenous; details: New Zealand white
# [26] = Cmax in NewZealand white rabbit plasma at 0.1 mg/kg, iv after 5 mins by LC-MS/MS analysis; assay type: ADME, organism-based, Oryctolagus cuniculus; design: dose 0.1 mg/kg, route intravenous; details: New Zealand white
# [27] = Cmax in NewZealand white rabbit plasma at 0.1 mg/kg, iv after 10 mins by LC-MS/MS analysis; assay type: ADME, organism-based, Oryctolagus cuniculus; design: dose 0.1 mg/kg, route intravenous; details: New Zealand white
# [28] = Half life in NewZealand white rabbit plasma at 0.1 mg/kg, iv by LC-MS/MS analysis; assay type: ADME, organism-based, Oryctolagus cuniculus; design: dose 0.1 mg/kg, route intravenous; details: New Zealand white
# [29] = Cmax in NewZealand white rabbit plasma at 0.1 mg/kg, iv after 30-60 mins by LC-MS/MS analysis; assay type: ADME, organism-based, Oryctolagus cuniculus; design: dose 0.1 mg/kg, route intravenous; details: New Zealand white
# Oryctolagus cuniculus [30] = test: Cmax in NewZealand white rabbit plasma assessed as 4-{[(2'-(Aminomethyl)-5'-{[(3-fluoropyridin-4-yl)amino]-carbonyl}biphenyl-3-yl)carbonyl]amino}benzoic Acid at 0.1 mg/kg, iv after 10 mins by LC-MS/MS analysis; assay type: ADME, organism-based; design: dose 0.1 mg/kg, route intravenous; details: in vivo
structure (smiles),measurement,setting,value
COC(=O)c1ccc(NC(=O)c2cccc(-c3cc(C(=O)Nc4ccncc4F)ccc3CN)c2)cc1,Cmax,Oryctolagus cuniculus [1],> 35 nM
same,inhibition,[2],Active
same,inhibition,[3],Active
same,inhibition,[4],Active
same,inhibition,Homo sapiens,Active
same,inhibition,[5],Active
same,inhibition,[6],Active
same,inhibition,[7],Active
same,inhibition,[8],Active
same,inhibition,[9],> 50%
same,inhibition,[10],> 50%
same,CC50 at 2 h,[11],46000 nM
same,Activity,[12],Toxic
same,Activity,HDF-1,Dose-dependent effect
same,IC50,[13],< 1 nM
same,IC50,[14],< 1 nM
same,IC50,[15],4.1 nM
same,EC50,[16],3 nM
same,half-life,[17],> 120 min
same,Papp,[18],0.8 ×10⁻⁶ cm/s
same,logD,[19],2.74
same,half-life,[20],> 120 min
same,half-life,[21],12 min
same,half-life,[22],12 min
same,remaining at 2 h,[23],2.4%
same,remaining at 2 h,[24],0.4%
same,Cmax,[25],803 nM
same,Cmax,[26],176 nM
same,Cmax,[27],57 nM
same,half-life,[28],22 min
same,Cmax,[29],> 8 nM
same,Cmax,Oryctolagus cuniculus [30],255 nM
